The source of these data is ChEMBL document CHEMBL5523699, “Exploring novel pyrazole-nitroimidazole hybrids: Synthesis and antiprotozoal activity against the human pathogen trichomonas vaginalis” (Bioorg Med Chem, 2024).

As usually defined, the CC50 is the concentration at which the toxic effect on the cells reaches its halfway point. Usually IC50 stands for the midpoint of a concentration-inhibition curve.

The nature of data set [1]: Cytotoxicity against human HeLa cells assessed as reduction in cell viability incubated for 24 hrs by MTT assay. Format: toxicity, cell-based. For orientation: Formazan colour is commonly taken as a measure of viable cells.
The subject of data set [2] is Trichomonas vaginalis. Description: Antiparasitic activity against Trichomonas vaginalis JT assessed as inhibition of parasite growth incubated for 24 hrs by flow cytometric analysis. Format: functional, organism-based. For orientation: A flow cytometer gives signals particle by particle.
Data set [3] in a line: Cytotoxicity against human HeLa cells assessed as reduction in cell viability incubated for 48 hrs by MTT assay. Format: toxicity, cell-based.
A short description of data set [4]: Selectivity index, ratio of CC50 for cytotoxicity against human […] cells incubated for 24 hrs to IC50 for antiparasitic activity against Trichomonas vaginalis JT assessed as inhibition of parasite growth incubated for 24 hrs. The note with it: read-out: Ratio CC50/IC50. Format: toxicity, cell-based.
The test system of data set [5] is Trichomonas vaginalis. The data set is described as follows: Antiparasitic activity against Trichomonas vaginalis JT assessed as inhibition of parasite growth incubated for 48 hrs by flow cytometric analysis. In kind it is functional, organism-based.
Data set [6] in a line: Selectivity index, ratio of CC50 for cytotoxicity against human […] cells incubated for 48 hrs to IC50 for antiparasitic activity against Trichomonas vaginalis JT assessed as inhibition of parasite growth incubated for 48 hrs. The note with it: read-out: Ratio CC50/IC50. In kind it is toxicity, cell-based.
Data set [7] deals with Trichomonas vaginalis. The data set is described as follows: Selectivity index, ratio of IC50 for antiparasitic activity against Trichomonas vaginalis JT assessed as inhibition of parasite growth incubated for 24 hrs to IC50 for antiparasitic activity against Trichomonas vaginalis JT assessed as inhibition of parasite growth incubated for 48 hrs. Format: functional.
Data set [8] concerns Trichomonas vaginalis. Description: Potency index, ratio of metronidazole IC50 to test compound IC50 for antiparasitic activity against Trichomonas vaginalis JT assessed as inhibition of parasite growth incubated for 48 hrs by flow cytometric analysis. In kind it is functional.
Data set [9] relates to Trichomonas vaginalis. Description: Selectivity index, ratio of IC50 for antiparasitic activity against Trichomonas vaginalis JT assessed as inhibition of parasite growth incubated for 48 hrs to IC50 for antiparasitic activity against Trichomonas vaginalis JT assessed as inhibition of parasite growth incubated for 24 hrs. In kind it is functional.

Consider `O=[N+]([O-])c1cn(CCO)cn1`, for which, in data set [1], the CC50 at 24 h worked out at 120 µM. The IC50 worked out at 19.9 µM in the data set with Trichomonas vaginalis [2] and 40.6 µM in the data set on Trichomonas vaginalis [5]. Also, in [3], the CC50 at 48 h stood at 212 µM. Further, in data set [4], the selectivity ratio at 24 h is 6. In [6], the selectivity ratio at 48 h is 5.22.
As to `O=C(OCCn1cnc([N+](=O)[O-])c1)c1cnn(-c2ccc(Cl)c(Cl)c2)c1`, the CC50 at 24 h in data set [1] is 584 µM. In addition, the IC50 with Trichomonas vaginalis [2] was found to be 5.3 µM; in the data set with Trichomonas vaginalis [5] it was 35.5 µM. Besides, the CC50 at 48 h in data set [3] is 313 µM. For the same compound, the selectivity ratio at 24 h in [4] came out at 110. For the same compound, in data set [6], the selectivity ratio at 48 h came out at 8.81.
With `O=C(OCCn1cnc([N+](=O)[O-])c1)c1cnn(-c2ccc(F)cc2)c1`, the “Ratio IC50” value in the data set on Trichomonas vaginalis [7] is around 2.5; with Trichomonas vaginalis [8] it was “<=19.2”. For the same compound, in data set [1], the CC50 at 24 h was 214 µM. Besides, the figures for the half-inhibitory concentration (IC50) in the data set with Trichomonas vaginalis [2] and in the data set on Trichomonas vaginalis [5] were 10.1 µM and 3.8 µM, respectively. Also, the CC50 at 48 h in [3] is 182 µM. Also, in data set [4], the selectivity ratio at 24 h was determined as 21. The selectivity ratio at 48 h in [6] was found to be 48.2.
On to `O=C(OCCn1cnc([N+](=O)[O-])c1)c1cnn(-c2ccc(Br)cc2)c1`, for which the CC50 at 24 h in data set [1] came to 69.3 µM. Besides, the results for the IC50 in the data set on Trichomonas vaginalis [2] and in the data set with Trichomonas vaginalis [5] were 15 µM and 18.6 µM, respectively. Also, the CC50 at 48 h in [3] is 90.4 µM. In data set [4], the selectivity ratio at 24 h amounted to 4.6. Also, in data set [6], the selectivity ratio at 48 h amounted to 4.86.
`COc1ccc(-n2cc(C(=O)OCCn3cnc([N+](=O)[O-])c3)cn2)cc1`: the CC50 at 24 h in data set [1] amounted to 211 µM. Besides, the half-maximal inhibitory concentration (IC50) in the data set on Trichomonas vaginalis [2] was determined as 18.8 µM; in the data set with Trichomonas vaginalis [5], 24.4 µM. For the same compound, the cytotoxic concentration (CC50) at 48 h in data set [3] turned out to be 141 µM. For the same compound, in data set [4], the selectivity ratio at 24 h was 11.1. Moreover, the selectivity ratio at 48 h in data set [6] stood at 5.78.
Take `O=C(OCCn1cnc([N+](=O)[O-])c1)c1cnn(-c2ccc(Cl)cc2)c1`: the 50% cytotoxic concentration (CC50) at 24 h in [1] came to 195 µM. Besides, the IC50 came to 4.8 µM in the data set on Trichomonas vaginalis [2] and 10.3 µM in the data set on Trichomonas vaginalis [5]. Further, the cytotoxic concentration (CC50) at 48 h in [3] amounted to 177 µM. Further, the selectivity ratio at 24 h in data set [4] is 40.3. In addition, the “Ratio IC50” value in the data set with Trichomonas vaginalis [9] is listed as around 2. Moreover, the selectivity ratio at 48 h in data set [6] stood at 17.
In the case of `O=C(OCCn1cnc([N+](=O)[O-])c1)c1cnn(-c2cc(Cl)cc(Cl)c2)c1`, the CC50 at 24 h in data set [1] is 266 µM. For the same compound, the figures for the concentration for half-maximal inhibition (IC50) with Trichomonas vaginalis [2] and in the data set with Trichomonas vaginalis [5] were 13.8 µM and 4.4 µM, respectively. In the data set on Trichomonas vaginalis [8], the “Ratio IC50” value is reported as “<=19.2”. In data set [3], the CC50 at 48 h is 164 µM. In addition, in data set [4], the selectivity ratio at 24 h came to 19.2. Also, the selectivity ratio at 48 h in data set [6] was found to be 37.
In the case of `O=C(OCCn1cnc([N+](=O)[O-])c1)c1cnn(-c2ccccc2)c1`, the CC50 at 24 h in data set [1] was found to be 236 µM. For the same compound, the 50% inhibitory concentration (IC50) was found to be 7.5 µM with Trichomonas vaginalis [2] and 12.6 µM with Trichomonas vaginalis [5]. In data set [3], the half-maximal cytotoxic concentration (CC50) at 48 h worked out at 98 µM. In addition, in data set [4], the selectivity ratio at 24 h turned out to be 31.4. For the same compound, the selectivity ratio at 48 h in [6] amounted to 7.7.
In the case of `O=C(OCCn1cnc([N+](=O)[O-])c1)c1cnn(-c2cccc(Br)c2)c1`, the “Ratio IC50” value in the data set with Trichomonas vaginalis [7] is on record as around 2.5; in the data set on Trichomonas vaginalis [8], “<=19.2”. Further, in data set [1], the half-maximal cytotoxic concentration (CC50) at 24 h is 148 µM. Besides, the results for the IC50 in the data set on Trichomonas vaginalis [2] and with Trichomonas vaginalis [5] were 5.2 µM and 2.1 µM, respectively. In [3], the 50% cytotoxic concentration (CC50) at 48 h is 111 µM. Further, in data set [4], the selectivity ratio at 24 h was 28.1. Besides, the selectivity ratio at 48 h in [6] was 53.8.
Regarding `O=C(OCCn1cnc([N+](=O)[O-])c1)c1cnn(-c2cccc(F)c2)c1`, the half-maximal cytotoxic concentration (CC50) at 24 h in data set [1] came to 185 µM. For the same compound, the IC50 in the data set with Trichomonas vaginalis [2] was determined as 18.2 µM; in the data set with Trichomonas vaginalis [5] it was 18 µM. Also, the CC50 at 48 h in data set [3] came out at 100 µM. For the same compound, the selectivity ratio at 24 h in data set [4] was 10.1. Moreover, in data set [6], the selectivity ratio at 48 h turned out to be 5.58.
In the case of `O=C(OCCn1cnc([N+](=O)[O-])c1)c1cnn(-c2cccc(Cl)c2)c1`, in data set [1], the CC50 at 24 h stood at 218 µM. For the same compound, the 50% inhibitory concentration (IC50) worked out at 10.3 µM in the data set with Trichomonas vaginalis [2] and 8 µM in the data set on Trichomonas vaginalis [5]. Also, in data set [3], the CC50 at 48 h is 84.9 µM. In addition, the selectivity ratio at 24 h in data set [4] is 21. Besides, the selectivity ratio at 48 h in data set [6] stood at 10.5.
As for `Cc1ncc([N+](=O)[O-])n1CCO` [METRONIDAZOLE], in data set [1], the CC50 at 24 h is 666 µM. The concentration for half-maximal inhibition (IC50) is 4.9 µM in the data set with Trichomonas vaginalis [2] and 39.7 µM in the data set with Trichomonas vaginalis [5]. Also, the CC50 at 48 h in data set [3] was determined as 286 µM. The selectivity ratio at 24 h in data set [4] was 136. The selectivity ratio at 48 h in data set [6] was determined as 7.19.
